The values that follow come from US9657009B2, “Heteroaryl substituted pyridyl compounds useful as kinase modulators” (BRISTOL-MYERS SQUIBB COMPANY, priority 2012, dated 2017).

Read-outs that look alike come from different tables or passages of the source.

This assay concerns the target IRAK4 (Homo sapiens (Human), UniProt Q9NWZ3). As to the kind of experiment: IRAK4 Inhibition Assay. The assay is classed as biochemical. The method, then:
IRAK4 Inhibition Assay The assays were performed in U-bottom 384-well plates. […] The reaction was initiated by the combination of IRAK4 with substrates and test compounds. The reaction mixture was incubated at room temperature for 60 min. and terminated by adding 45 μL of 35 mM EDTA to each sample.

The mark [1] stands for this setting: ATP 500 μM, IRAK4 0.6 nM, 60 min at room temperature, read-out: IRAK4 IC50.

IRAK4, sequence (Q9NWZ3 whole entry, species assumed): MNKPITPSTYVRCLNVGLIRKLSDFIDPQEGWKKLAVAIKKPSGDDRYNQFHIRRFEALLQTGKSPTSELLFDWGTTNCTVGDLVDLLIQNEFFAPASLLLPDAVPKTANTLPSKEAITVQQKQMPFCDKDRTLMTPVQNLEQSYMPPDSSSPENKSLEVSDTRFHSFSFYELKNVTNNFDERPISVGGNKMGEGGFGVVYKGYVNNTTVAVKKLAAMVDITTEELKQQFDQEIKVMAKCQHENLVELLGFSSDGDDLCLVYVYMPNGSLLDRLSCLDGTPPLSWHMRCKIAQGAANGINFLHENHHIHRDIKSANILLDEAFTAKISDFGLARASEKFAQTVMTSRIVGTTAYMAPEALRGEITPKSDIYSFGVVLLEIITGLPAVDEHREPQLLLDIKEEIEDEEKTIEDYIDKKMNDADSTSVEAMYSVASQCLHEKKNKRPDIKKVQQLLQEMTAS

The term IC50 denotes the concentration at which inhibition is half-maximal. With `CC(C)Nc1cc(Nc2ccc(C#N)c(N3CCC(O)C3)n2)ncc1C(=O)NC[C@@H](F)C(C)(C)O` (stereo in doubt) [Example 27, 6-((5-cyano-6-((3S)-3-hydroxy-1-pyrrolidinyl)-2-pyridinyl)amino)-N-((2R)-2-fluoro-3-hydroxy-3-methylbutyl)-4-(isopropylamino)nicotinamide], the IC50 under setting [1] is 6 nM. On the same count and under the same terms, the same measure for `CNC(=O)c1cnc(Nc2ccc(C#N)cn2)cc1N[C@@H](c1ccccc1)[C@H](O)CO` [Example 1, 6-((5-cyano-2-pyridinyl)amino)-4-(((1S,2S)-2,3-dihydroxy-1-phenylpropyl)amino)-N-methylnicotinamide]: 53.9 nM; for `CC(C)Nc1cc(Nc2ccc(C#N)cn2)ncc1C(=O)NC[C@@H](F)C(C)(C)O` [Example 2, 6-((5-cyano-2-pyridinyl)amino)-N-((2R)-2-fluoro-3-hydroxy-3-methylbutyl)-4-(isopropylamino)nicotinamide]: 2 nM. As to `CC(C)(O)[C@H](F)CNC(=O)c1cnc(Nc2ccc(C#N)cn2)cc1NCC(F)(F)F` [Example 3, 6-((5-cyano-2-pyridinyl)amino)-N-((2R)-2-fluoro-3-hydroxy-3-methylbutyl)-4-((2,2,2-trifluoroethyl)amino)nicotinamide], the half-maximal inhibitory concentration (IC50) under setting [1] came to 14.8 nM.

`CCNc1cc(Nc2ccc(C#N)cn2)ncc1C(=O)NC[C@@H](F)C(C)(C)O` [Example 4, 6-((5-cyano-2-pyridinyl)amino)-4-(ethylamino)-N-((2R)-2-fluoro-3-hydroxy-3-methylbutyl)nicotinamide]: under setting [1], the concentration for half-maximal inhibition (IC50) is 10.3 nM. With `CC(C)Nc1cc(Nc2ccc(C#N)cn2)ncc1C(=O)N[C@H]1CC[C@H](C(=O)NC2CC2)CC1` [Example 6, 6-((5-cyanopyridin-2-yl)amino)-N-((1R,4R)-4-(cyclopropylcarbamoyl)cyclohexyl)-4-(isopropylamino)nicotinamide], the IC50 under setting [1] stood at 5.5 nM. `CC(C)Nc1cc(Nc2ccc(C#N)cn2)ncc1C(=O)N[C@H]1CC[C@H](C(=O)N[C@H]2C[C@H]2F)CC1` [Example 7, 6-((5-cyano-2-pyridinyl)amino)-N-(trans-4-(((1S,2R)-2-fluorocyclopropyl)carbamoyl)cyclohexyl)-4-(isopropylamino)nicotinamide]: the IC50 under setting [1] turned out to be 10.4 nM.

With `CC(=O)N1CCC(NC(=O)c2cnc(Nc3ccc(C#N)cn3)cc2NC(C)C)CC1` [Example 8, N-(1-acetyl-4-piperidinyl)-6-((5-cyano-2-pyridinyl)amino)-4-(isopropylamino)nicotinamide], the IC50 under setting [1] worked out at 30.7 nM. On to `CC(=O)N[C@H]1CC[C@H](NC(=O)c2cnc(Nc3ccc(C#N)cn3)cc2NC(C)C)CC1` [Example 9, N-(trans-4-acetamidocyclohexyl)-6-((5-cyano-2-pyridinyl)amino)-4-(isopropylamino)nicotinamide], for which the IC50 under setting [1] was 7.4 nM. For the compound `CC(=O)N[C@H]1CC[C@H](NC(=O)c2cnc(Nc3ccc(C#N)cn3)cc2NC2CCOCC2F)CC1` (stereo partly drawn) [Example 11, N-((1R,4R)-4-acetamidocyclohexyl)-6-((5-cyanopyridin-2-yl)amino)-4-(((3S,4R)-3-fluorotetrahydro-2H-pyran-4-yl)amino)nicotinamide], under setting [1], the IC50 came out at 11.1 nM. Regarding `CC(C)Nc1cc(Nc2ncc(C#N)cc2Cl)ncc1C(=O)NC[C@@H](F)C(C)(C)O` [Example 12, 6-((3-chloro-5-cyano-2-pyridinyl)amino)-N-((2R)-2-fluoro-3-hydroxy-3-methylbutyl)-4-(isopropylamino)nicotinamide], the IC50 under setting [1] was found to be 1.9 nM.

As for `CC(=O)N[C@H]1CC[C@H](NC(=O)c2cnc(Nc3ncc(C#N)cc3Cl)cc2NC(C)C)CC1` [Example 15, N-((1r,4r)-4-acetamidocyclohexyl)-6-((3-chloro-5-cyanopyridin-2-yl)amino)-4-(isopropylamino)nicotinamide], the IC50 under setting [1] turned out to be 5.2 nM. On the same count and under the same terms, to `CNC(=O)[C@H]1CC[C@H](NC(=O)c2cnc(Nc3ncc(C#N)cc3Cl)cc2NC(C)C)CC1` [Example 16, 6-((3-chloro-5-cyanopyridin-2-yl)amino)-4-(isopropylamino)-N-((1r,4r)-4-(methylcarbamoyl)cyclohexyl)nicotinamide] belongs 6.3 nM; to `CC(C)Nc1cc(Nc2ncc(C#N)cc2F)ncc1C(=O)NC[C@@H](F)C(C)(C)O` [Example 17, 6-((5-cyano-3-fluoro-2-pyridinyl)amino)-N-((2R)-2-fluoro-3-hydroxy-3-methylbutyl)-4-(isopropylamino)nicotinamide], 9.6 nM; to `CNC(=O)[C@H]1CC[C@H](NC(=O)c2cnc(Nc3ncc(C#N)cc3F)cc2NC(C)C)CC1` [Example 18, 6-((5-cyano-3-fluoropyridin-2-yl)amino)-4-(isopropylamino)-N-((1r,4r)-4-(methylcarbamoyl)cyclohexyl)nicotinamide], 3.4 nM. With `CC(=O)N[C@H]1CC[C@H](NC(=O)c2cnc(Nc3ncc(C#N)cc3F)cc2NC(C)C)CC1` [Example 19, N-(trans-4-acetamidocyclohexyl)-6-((5-cyano-3-fluoro-2-pyridinyl)amino)-4-(isopropylamino)nicotinamide], the IC50 under setting [1] is 4.8 nM. In the case of `CC(C)Nc1cc(Nc2ccncn2)ncc1C(=O)NC[C@@H](F)C(C)(C)O` [Example 20, N-((2R)-2-fluoro-3-hydroxy-3-methylbutyl)-4-(isopropylamino)-6-(4-pyrimidinylamino)nicotinamide], the IC50 under setting [1] was determined as 11.7 nM. Still for that read-out and setting: the same measure for `CC(C)(O)[C@H](F)CNC(=O)c1cnc(Nc2ccncn2)cc1NC1CC1` [Example 21, 4-(cyclopropylamino)-N-((2R)-2-fluoro-3-hydroxy-3-methylbutyl)-6-(4-pyrimidinylamino)nicotinamide]: 13.3 nM; for `CC(C)Nc1cc(Nc2ncc(C#N)cn2)ncc1C(=O)NC[C@@H](F)C(C)(C)O` [Example 22, 6-((5-cyano-2-pyrimidinyl)amino)-N-((2R)-2-fluoro-3-hydroxy-3-methylbutyl)-4-(isopropylamino)nicotinamide]: 5.3 nM.

Turning to `CC(C)(O)[C@H](F)CNC(=O)c1cnc(Nc2nc(-c3cccnc3)cs2)cc1NC1CC1` [Example 23, 4-(cyclopropylamino)-N-((2R)-2-fluoro-3-hydroxy-3-methylbutyl)-6-((4-(3-pyridinyl)-1,3-thiazol-2-yl)amino)nicotinamide], the concentration for half-maximal inhibition (IC50) amounted to 23.3 nM. In the case of `CC(C)Nc1cc(Nc2ccnc(NC3CC3)n2)ncc1C(=O)NC[C@@H](F)C(C)(C)O` [Example 24, 6-((2-(cyclopropylamino)-4-pyrimidinyl)amino)-N-((2R)-2-fluoro-3-hydroxy-3-methylbutyl)-4-(isopropylamino)nicotinamide], the IC50 under setting [1] was 11 nM. As to `CC(C)Nc1cc(Nc2ccnc(NC3CCCOC3)n2)ncc1C(=O)NC[C@@H](F)C(C)(C)O` (stereo partly drawn) [Example 25, N-((2R)-2-fluoro-3-hydroxy-3-methylbutyl)-4-(isopropylamino)-6-((2-(tetrahydro-2H-pyran-3-ylamino)-4-pyrimidinyl)amino)nicotinamide], the IC50 under setting [1] was 9.9 nM. On the same count and under the same terms, the same measure for `CC(C)Nc1cc(Nc2ccnc(N3CCC(F)C3)n2)ncc1C(=O)NC[C@@H](F)C(C)(C)O` (stereo partly drawn) [Example 26, N-((2R)-2-fluoro-3-hydroxy-3-methylbutyl)-6-((2-(3-fluoro-1-pyrrolidinyl)-4-pyrimidinyl)amino)-4-(isopropylamino)nicotinamide]: 4.8 nM.

Consider `CC(=O)N[C@H](C)CCNC(=O)c1cnc(Nc2ncc(C#N)cc2Cl)cc1NC(C)C` [Example 28, (R)—N-(3-acetamidobutyl)-6-((3-chloro-5-cyanopyridin-2-yl)amino)-4-(isopropylamino)nicotinamide], for which the IC50 under setting [1] turned out to be 1.5 nM. On the same count and under the same terms, the same measure for `CC(C)NC(=O)N[C@H](C)CCNC(=O)c1cnc(Nc2ncc(C#N)cc2F)cc1NC(C)C` [Example 29, (R)-6-((5-cyano-3-fluoropyridin-2-yl)amino)-4-(isopropylamino)-N-(3-(3-isopropylureido)butyl)nicotinamide]: 1.2 nM; for `CC(C)Nc1cc(Nc2ncc(C#N)cc2F)ncc1C(=O)N[C@H]1CC[C@H](S(C)(=O)=O)CC1` [Example 33, 6-((5-cyano-3-fluoropyridin-2-yl)amino)-4-(isopropylamino)-N-((1R,4R)-4-(methylsulfonyl)cyclohexyl)nicotinamide]: 10 nM; for `CC(=O)Nc1nc(Nc2cc(NC(C)C)c(C(=O)NC[C@@H](F)C(C)(C)O)cn2)ncc1C#N` [Example 34]: 6.1 nM.

`CC(C)(O)[C@H](F)CNC(=O)c1cnc(Nc2ncc(C(N)=O)cc2Cl)cc1NC1CCC(F)C1` (stereo partly drawn) [Example 38]: the IC50 under setting [1] was 4.5 nM. With `C[C@@H](CF)Nc1cc(Nc2ncc(C#N)cc2Cl)ncc1C(=O)NC[C@@H](F)C(C)(C)O` [Example 39, 6-((3-chloro-5-cyanopyridin-2-yl)amino)-N—((R)-2-fluoro-3-hydroxy-3-methylbutyl)-4-(((S)-1-fluoropropan-2-yl)amino)nicotinamide], the half-maximal inhibitory concentration (IC50) under setting [1] came to 3.8 nM.

Take `CC(C)Nc1cc(Nc2ncc(C#N)c(NC(C)C)n2)ncc1C(=O)NC[C@@H](F)C(C)(C)O` [Example 40]: the IC50 under setting [1] stood at 6.4 nM. For the compound `CC(C)(O)[C@H](F)CNC(=O)c1cnc(Nc2nc(OC3CCNCC3)ncc2Cl)cc1NC1CC1` [Example 42], the concentration for half-maximal inhibition (IC50) under setting [1] is 14.7 nM. On to `CC(C)(O)C(F)(F)CNC(=O)c1cnc(Nc2ncc(C#N)cc2Cl)cc1NC1CC1` [Example 43, 6-((3-chloro-5-cyanopyridin-2-yl)amino)-4-(cyclopropylamino)-N-(2,2-difluoro-3-hydroxy-3-methylbutyl)nicotinamide], for which the IC50 under setting [1] is 10.7 nM.

In the case of `CC(C)Nc1cc(Nc2ccc(=O)[nH]n2)ncc1C(=O)NC[C@@H](F)C(C)(C)O` [Example 45], under setting [1], the IC50 was found to be 7.5 nM. On to `CC(C)(F)CNc1cc(Nc2ncc(C#N)cc2Cl)ncc1C(=O)NC[C@@H](F)C(C)(C)O` [Example 46], for which the half-inhibitory concentration (IC50) under setting [1] is 16.9 nM. The same measure, in the same setting: the same measure for `CC(C)(O)[C@H](F)CNC(=O)c1cnc(Nc2ncc(C#N)cc2F)cc1NC1CC1` [Example 47]: 1.9 nM; for `CC(C)(O)[C@H](F)CNC(=O)c1cnc(Nc2ncc(C#N)cc2F)cc1NC1CCOCC1` [Example 49]: 3.1 nM.
